Measured values published in ChEMBL document CHEMBL5252609, “Design, synthesis, and antitumor evaluation of morpholine substituted bisnaphthalimides as DNA targeting agents” (Bioorg Med Chem Lett, 2023).
Active and inactive are the calls of the source. The calls are words filed in the database; no cut-off is given here.

Tests used:
[1] = tested on: MGC-803; test: Toxicity in nude mouse xenografted with human MGC-803 cells assessed as morphological changes in liver at 8 mg/kg, ip administrated every other day for 21 days; type: functional, organism-based; conditions: time 21.0 day
[2] = tested on: MGC-803; test: Antitumor activity against human MGC-803 cells xenografted in nude mouse assessed as reduction in tumor weight at 4 mg/kg, ip administrated every other day for 21 days relative to control; type: functional; design: scale not given: the % may be the effect or the level left; conditions: time 21 day
[3] = tested on: MGC-803; test: Antitumor activity against human MGC-803 cells xenografted in nude mouse assessed as reduction in tumor volume growth rate at 4 mg/kg, ip administrated every other day for 21 days relative to control; type: functional; design: scale not given: the % may be the effect or the level left; conditions: time 21 day
[4] = tested on: A2780; test: Antiproliferative activity against human A2780 cells assessed as cell growth inhibition by MTT assay; type: functional, cell-based
[5] = tested on: CNE-2; test: Antiproliferative activity against human CNE-2 cells assessed as cell growth inhibition by MTT assay; type: functional, cell-based
[6] = tested on: MGC-803; test: Antiproliferative activity against human MGC-803 cells assessed as cell growth inhibition by MTT assay; type: functional, cell-based
[7] = tested on: T-24; test: Antiproliferative activity against human T24 cells assessed as cell growth inhibition by MTT assay; type: functional, cell-based
[8] = target: T1, DNA topoisomerase 1 (Homo sapiens) (UniProt P11387); test: Inhibition of human DNA topoisomerase 1 assessed as reduction in pBR322 DNA relaxation upto 100 uM by gel electrophoresis method
T1 sequence (whole entry): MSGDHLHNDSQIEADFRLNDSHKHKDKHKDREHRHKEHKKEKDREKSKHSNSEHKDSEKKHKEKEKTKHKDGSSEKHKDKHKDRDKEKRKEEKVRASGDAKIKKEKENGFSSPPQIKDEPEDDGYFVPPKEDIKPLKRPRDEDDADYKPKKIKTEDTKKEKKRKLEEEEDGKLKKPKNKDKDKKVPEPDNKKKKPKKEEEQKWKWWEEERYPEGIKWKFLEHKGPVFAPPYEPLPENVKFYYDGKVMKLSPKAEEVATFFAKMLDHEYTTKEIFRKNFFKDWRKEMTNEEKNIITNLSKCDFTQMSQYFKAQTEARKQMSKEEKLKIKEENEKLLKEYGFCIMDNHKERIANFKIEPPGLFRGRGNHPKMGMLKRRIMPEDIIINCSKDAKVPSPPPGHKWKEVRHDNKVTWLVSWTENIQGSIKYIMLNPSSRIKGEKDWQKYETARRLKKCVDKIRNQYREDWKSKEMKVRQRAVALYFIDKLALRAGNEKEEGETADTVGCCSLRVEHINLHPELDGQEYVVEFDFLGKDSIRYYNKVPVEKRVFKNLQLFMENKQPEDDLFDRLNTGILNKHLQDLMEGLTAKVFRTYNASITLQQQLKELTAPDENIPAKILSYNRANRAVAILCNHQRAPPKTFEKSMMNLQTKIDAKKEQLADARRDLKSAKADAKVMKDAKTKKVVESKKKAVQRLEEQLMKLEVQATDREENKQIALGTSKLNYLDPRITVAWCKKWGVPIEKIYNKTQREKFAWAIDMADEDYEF

[9] = species on record: Homo sapiens; test: Binding affinity to pBR322 DNA (unknown origin) assessed as DNA intercalation at 20 to 100 uM by electrophoresis assay; conditions: dose 20-100 µM
[10] = species on record: Homo sapiens; test: Binding affinity to pBR322 DNA (unknown origin) assessed as induced retardation of DNA migration at 20 to 100 uM by gel electrophoresis assay; conditions: dose 20-100 µM

| IC50 [4] | IC50 [6] | inhibition [8] | Activity [9] | Activity [10] | Structure (SMILES) | Activity [1] | Activity [2] | Activity [3] | IC50 [5] | IC50 [7] |
| --- | --- | --- | --- | --- | --- | --- | --- | --- | --- | --- |
| 2.79 µM | 14.6 µM | inactive | inactive | inactive | O=C1c2cccc3cc([N+](=O)[O-])cc(c23)C(=O)N1CCNCCN1C(=O)c2cccc3cc([N+](=O)[O-])cc(c23)C1=O |  |  |  | 4.51 µM | 3.45 µM |
| 0.42 µM | 2.05 µM | inactive | Active | Active | CN1CCN(c2c([N+](=O)[O-])cc3c4c(cccc24)C(=O)N(CCNCCN2C(=O)c4cccc5c(N6CCN(C)CC6)c([N+](=O)[O-])cc(c45)C2=O)C3=O)CC1 |  |  |  | 0.34 µM | 0.65 µM |
| > 50 µM | > 50 µM |  |  |  | O=C1c2cccc3c(N4CCC(N5CCCCC5)CC4)c([N+](=O)[O-])cc(c23)C(=O)N1CCNCCN1C(=O)c2cccc3c(N4CCC(N5CCCCC5)CC4)c([N+](=O)[O-])cc(c23)C1=O |  |  |  | 9.25 µM | 14.8 µM |
| > 50 µM | > 50 µM |  |  |  | CC(C)(C)OC(=O)N1CCN(c2c([N+](=O)[O-])cc3c4c(cccc24)C(=O)N(CCNCCN2C(=O)c4cccc5c(N6CCN(C(=O)OC(C)(C)C)CC6)c([N+](=O)[O-])cc(c45)C2=O)C3=O)CC1 |  |  |  | > 50 µM | > 50 µM |
| 22.8 µM | 11.8 µM |  |  |  | O=C1c2cccc3c(N4CCOCC4)c([N+](=O)[O-])cc(c23)C(=O)N1CCO |  |  |  | 16.4 µM | 9.34 µM |
| 28.4 µM | 23.1 µM |  |  |  | O=C1c2cccc3c(N4CCOCC4)c([N+](=O)[O-])cc(c23)C(=O)N1CCc1ccc2c(c1)OCO2 |  |  |  | > 50 µM | 23.6 µM |
| > 50 µM | > 50 µM |  |  |  | O=C1c2cccc3c(N4CCCCC4)c([N+](=O)[O-])cc(c23)C(=O)N1CCNCCN1C(=O)c2cccc3c(N4CCCCC4)c([N+](=O)[O-])cc(c23)C1=O |  |  |  | > 50 µM | > 50 µM |

| Structure (SMILES) | IC50 [4] | IC50 [6] | inhibition [8] | Activity [9] | Activity [10] | Activity [1] | Activity [2] | Activity [3] | IC50 [5] | IC50 [7] |
| --- | --- | --- | --- | --- | --- | --- | --- | --- | --- | --- |
| CN(C)CCN1C(=O)c2cccc3cc([N+](=O)[O-])cc(c23)C1=O [MITONAFIDE] | 5.22 µM | 3.32 µM |  |  |  | Toxic | 34.2% | 54.2% | 3.42 µM | 3.25 µM |
| CN(C)CCN1C(=O)c2cccc3cc(N)cc(c23)C1=O [AMONAFIDE] | 11.7 µM | 5.25 µM |  |  |  |  |  |  | 8.65 µM | 7.23 µM |
